Test results published in PubChem BioAssay AID1963842 (Molecular Pharmacology Branch, DTP, NCI, 2024).

Test system: 677734-321-R-J1-PDC complex spheroid viability
Assay: Anticancer human tumor 677734-321-R-J1-PDC patient-derived soft tissue sarcoma cell line growth inhibition [POLQ]
Settings: for IC50: curve of first compound; for viability, T/C: stronger effect = lower value
Method in brief: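 Patient-derived tumour cells were co-cultured with HUVEC and mesenchymal stem cells as multicellular spheroids at 37 °C. They were treated with POLQ inhibitors (novobiocin, ART-558, RP6685) alone or combined with other agents. Top concentrations were at or near clinical Cmax (otherwise 10 microM; SN-38 at 1 microM), decreasing in half-log steps.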

[1] = second compound 0.0316 µM, first compound 0.00316 µM
[2] = second compound 0.0316 µM, first compound 0.01 µM
[3] = second compound 0.0316 µM, first compound 0.0316 µM
[4] = second compound 0.0316 µM, first compound 0.1 µM
[5] = second compound 0.0316 µM, first compound 0.316 µM
[6] = second compound 0.0316 µM, first compound 1 µM
[7] = second compound 0.1 µM, first compound 0.00316 µM
[8] = second compound 0.1 µM, first compound 0.01 µM
[9] = second compound 0.1 µM, first compound 0.0316 µM
[10] = second compound 0.1 µM, first compound 0.1 µM
[11] = second compound 0.1 µM, first compound 0.316 µM
[12] = second compound 0.1 µM, first compound 1 µM
[13] = second compound 0.316 µM, first compound 0.00316 µM
[14] = second compound 0.316 µM, first compound 0.01 µM
[15] = second compound 0.316 µM, first compound 0.0316 µM
[16] = second compound 0.316 µM, first compound 0.1 µM
[17] = second compound 0.316 µM, first compound 0.316 µM
[18] = second compound 0.316 µM, first compound 1 µM
[19] = second compound 1 µM, first compound 0.00316 µM
[20] = second compound 1 µM, first compound 0.01 µM
[21] = second compound 1 µM, first compound 0.0316 µM
[22] = second compound 1 µM, first compound 0.1 µM
[23] = second compound 1 µM, first compound 0.316 µM
[24] = second compound 1 µM, first compound 1 µM
[25] = second compound 3.16 µM, first compound 0.00316 µM
[26] = second compound 3.16 µM, first compound 0.01 µM
[27] = second compound 3.16 µM, first compound 0.0316 µM
[28] = second compound 3.16 µM, first compound 0.1 µM
[29] = second compound 3.16 µM, first compound 0.316 µM
[30] = second compound 3.16 µM, first compound 1 µM
[31] = second compound 10 µM, first compound 0.00316 µM
[32] = second compound 10 µM, first compound 0.01 µM
[33] = second compound 10 µM, first compound 0.0316 µM
[34] = second compound 10 µM, first compound 0.1 µM
[35] = second compound 10 µM, first compound 0.316 µM
[36] = second compound 10 µM, first compound 1 µM
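Note: spheroids exposed to compounds for one week.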
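Throughout, for viability, T/C: 100% = vehicle DMSO treated spheroids.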

**Q.** For `C=CCn1c(=O)c2cnc(Nc3ccc(N4CCN(C)CC4)cc3)nc2n1-c1cccc(C(C)(C)O)n1` + Nc1ccc(C#CCN(C(=O)Cc2ncc(C(F)(F)F)cc2C(F)(F)F)c2ccc(F)cc2)nn1, which IC50 (second compound 0.0316 µM) is on record?
**A.** 727 nM

**Q.** What about the IC50 (second compound 0.1 µM) of the same compound?
**A.** 682 nM

**Q.** What about the IC50 (second compound 0.316 µM) of the same compound?
**A.** 664 nM

**Q.** And the IC50 (second compound 1 µM)?
**A.** 644 nM

**Q.** What about the IC50 (second compound 3.16 µM) of the same compound?
**A.** 496 nM

**Q.** What about the IC50 (second compound 10 µM) of the same compound?
**A.** 805 nM

**Q.** And the viability, T/C [1]?
**A.** 114%

**Q.** What about the viability, T/C [2] of the same compound?
**A.** 107%

**Q.** What about the viability, T/C [3] of the same compound?
**A.** 102%

**Q.** What about the viability, T/C [4] of the same compound?
**A.** 102%

**Q.** What about the viability, T/C [5] of the same compound?
**A.** 84.1%

**Q.** And the viability, T/C [6]?
**A.** 36.7%

**Q.** And the viability, T/C [7]?
**A.** 107%

**Q.** And the viability, T/C [8]?
**A.** 111%

**Q.** What about the viability, T/C [9] of the same compound?
**A.** 122%

**Q.** And the viability, T/C [10]?
**A.** 97.2%

**Q.** What about the viability, T/C [11] of the same compound?
**A.** 80.8%

**Q.** And the viability, T/C [12]?
**A.** 35.1%

**Q.** What about the viability, T/C [13] of the same compound?
**A.** 119%

**Q.** And the viability, T/C [14]?
**A.** 102%

**Q.** What about the viability, T/C [15] of the same compound?
**A.** 110%

**Q.** What about the viability, T/C [16] of the same compound?
**A.** 104%

**Q.** And the viability, T/C [17]?
**A.** 81.1%

**Q.** What about the viability, T/C [18] of the same compound?
**A.** 32.5%

**Q.** And the viability, T/C [19]?
**A.** 106%

**Q.** What about the viability, T/C [20] of the same compound?
**A.** 102%

**Q.** What about the viability, T/C [21] of the same compound?
**A.** 112%

**Q.** And the viability, T/C [22]?
**A.** 93.2%

**Q.** And the viability, T/C [23]?
**A.** 85.4%

**Q.** What about the viability, T/C [24] of the same compound?
**A.** 29.3%

**Q.** And the viability, T/C [25]?
**A.** 114%

**Q.** And the viability, T/C [26]?
**A.** 96.3%

**Q.** And the viability, T/C [27]?
**A.** 103%

**Q.** And the viability, T/C [28]?
**A.** 104%

**Q.** What about the viability, T/C [29] of the same compound?
**A.** 59%

**Q.** And the viability, T/C [30]?
**A.** 35.9%

**Q.** What about the viability, T/C [31] of the same compound?
**A.** 116%

**Q.** And the viability, T/C [32]?
**A.** 113%

**Q.** And the viability, T/C [33]?
**A.** 108%

**Q.** And the viability, T/C [34]?
**A.** 97.1%

**Q.** What about the viability, T/C [35] of the same compound?
**A.** 74.6%

**Q.** And the viability, T/C [36]?
**A.** 44.2%

**Q.** For `COc1cccc(OCCCN)c1-c1cc(Nc2cnc(C#N)cn2)n[nH]1` + COC1C(OC(N)=O)C(O)C(Oc2ccc3c(O)c(NC(=O)c4ccc(O)c(CC=C(C)C)c4)c(=O)oc3c2C)OC1(C)C, which IC50 (second compound 0.0316 µM) is on record?
**A.** 7.45 nM

**Q.** And the IC50 (second compound 0.1 µM)?
**A.** 7.48 nM

**Q.** And the IC50 (second compound 0.316 µM)?
**A.** 7.05 nM

**Q.** And the IC50 (second compound 1 µM)?
**A.** 8.14 nM

**Q.** What about the IC50 (second compound 3.16 µM) of the same compound?
**A.** 7.37 nM

**Q.** What about the IC50 (second compound 10 µM) of the same compound?
**A.** 7.32 nM

**Q.** And the viability, T/C [1]?
**A.** 97.1%

**Q.** What about the viability, T/C [2] of the same compound?
**A.** 33.8%

**Q.** And the viability, T/C [3]?
**A.** 12.8%

**Q.** And the viability, T/C [4]?
**A.** 9.46%

**Q.** And the viability, T/C [5]?
**A.** 8.59%

**Q.** And the viability, T/C [6]?
**A.** 8.45%

**Q.** What about the viability, T/C [7] of the same compound?
**A.** 92.5%

**Q.** And the viability, T/C [8]?
**A.** 35.6%

**Q.** And the viability, T/C [9]?
**A.** 11.9%

**Q.** And the viability, T/C [10]?
**A.** 8.91%

**Q.** What about the viability, T/C [11] of the same compound?
**A.** 9.88%

**Q.** And the viability, T/C [12]?
**A.** 7.56%

**Q.** And the viability, T/C [13]?
**A.** 97.3%

**Q.** What about the viability, T/C [14] of the same compound?
**A.** 29%

**Q.** And the viability, T/C [15]?
**A.** 14.7%

**Q.** And the viability, T/C [16]?
**A.** 9.01%

**Q.** What about the viability, T/C [17] of the same compound?
**A.** 10.5%

**Q.** What about the viability, T/C [18] of the same compound?
**A.** 7.41%

**Q.** What about the viability, T/C [19] of the same compound?
**A.** 102%

**Q.** And the viability, T/C [20]?
**A.** 38.5%

**Q.** What about the viability, T/C [21] of the same compound?
**A.** 9.9%

**Q.** What about the viability, T/C [22] of the same compound?
**A.** 11.4%

**Q.** And the viability, T/C [23]?
**A.** 11.9%

**Q.** What about the viability, T/C [24] of the same compound?
**A.** 8.34%

**Q.** And the viability, T/C [25]?
**A.** 103%

**Q.** What about the viability, T/C [26] of the same compound?
**A.** 30.6%

**Q.** What about the viability, T/C [27] of the same compound?
**A.** 11.9%

**Q.** What about the viability, T/C [28] of the same compound?
**A.** 9.84%

**Q.** What about the viability, T/C [29] of the same compound?
**A.** 12.3%

**Q.** What about the viability, T/C [30] of the same compound?
**A.** 9.73%

**Q.** What about the viability, T/C [31] of the same compound?
**A.** 88.4%

**Q.** And the viability, T/C [32]?
**A.** 35.7%

**Q.** And the viability, T/C [33]?
**A.** 12.3%

**Q.** What about the viability, T/C [34] of the same compound?
**A.** 12%

**Q.** And the viability, T/C [35]?
**A.** 10.3%

**Q.** What about the viability, T/C [36] of the same compound?
**A.** 9.04%
